For 21 molecules, IC50 results are on record in patent US12692254B2, “Benzimidazole inhibitors of PAD enzymes” (BRISTOL-MYERS SQUIBB COMPANY, priority 2018, dated 2026).

What is called IC50 is the concentration that gives 50% inhibition.

The assay deals with human PAD4 (hPAD4) (Homo sapiens, UniProt Q9UM07). Nature of the assay: RFMS human PAD4 functional assay (rapid-fire mass spectrum). The format is biochemical. Conditions: 5 nM hPAD4 enzyme, 250 μM BAEE, 50 μM Calcium; 30 min preincubation, 90 min reaction at 37° C. Summed up:
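PAD4 (10 nM) preincubated 30 min with compound (top final 50 μM), then BAEE substrate added in pH 7.5 HEPES buffer with DTT, 50 μM calcium, TPEN; 90 min at 37° C. After TCA quench, citrulline derivatized with phenyl glyoxal (4 mM final, 30 min, 37° C) and quantified by RapidFire MS against internal standard.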

human PAD4 (hPAD4), sequence (Q9UM07 whole entry): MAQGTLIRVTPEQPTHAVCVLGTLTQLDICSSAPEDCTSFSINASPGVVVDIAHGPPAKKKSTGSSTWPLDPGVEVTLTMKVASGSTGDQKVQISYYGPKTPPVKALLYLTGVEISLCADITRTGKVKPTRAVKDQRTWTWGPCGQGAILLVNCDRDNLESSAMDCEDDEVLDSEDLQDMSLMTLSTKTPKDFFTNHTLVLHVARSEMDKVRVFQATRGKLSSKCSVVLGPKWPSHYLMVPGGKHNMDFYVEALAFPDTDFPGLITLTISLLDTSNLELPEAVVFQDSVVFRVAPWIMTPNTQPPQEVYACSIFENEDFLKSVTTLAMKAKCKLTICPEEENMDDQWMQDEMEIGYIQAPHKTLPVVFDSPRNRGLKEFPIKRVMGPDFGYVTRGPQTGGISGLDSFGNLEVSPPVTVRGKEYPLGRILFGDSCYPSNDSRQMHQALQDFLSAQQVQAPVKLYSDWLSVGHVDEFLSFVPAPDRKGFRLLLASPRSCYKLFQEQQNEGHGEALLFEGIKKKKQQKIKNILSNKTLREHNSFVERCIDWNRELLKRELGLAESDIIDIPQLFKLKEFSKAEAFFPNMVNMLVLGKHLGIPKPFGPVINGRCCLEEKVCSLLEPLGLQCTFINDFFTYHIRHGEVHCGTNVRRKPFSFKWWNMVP

Regarding `COc1cc(C(=O)N2CC3CCC2[C@@H]3N)cc2nc(-c3cc4cccnc4n3CC3CC3)n(Cc3cnn(-c4ccc(O)nc4)c3)c12` (stereo partly drawn) [Example 370, 5-[4-({5-[(7R)-7-amino-2-azabicyclo[2.2.1]heptane-2-carbonyl]-2-[1-(cyclopropylmethyl)-1H-pyrrolo[2,3-b]pyridin-2-yl]-7-methoxy-1H-1,3-benzodiazol-1-yl}methyl)-1H-pyrazol-1-yl]pyridin-2-ol], the IC50 was found to be 30 nM. For the molecule `COc1cc(C(=O)N2CC3CCC2[C@@H]3N)cc2nc(-c3cc4ccccc4n3CC3CC3)n(CC3CCN(c4ncccn4)C3)c12` (stereo in doubt) [Example 228, (1R,4R,7R)-2-{2-[1-(cyclopropylmethyl)-1H-indol-2-yl]-7-methoxy-1-{[(3S)-1-(pyrimidin-2-yl)pyrrolidin-3-yl]methyl}-1H-1,3-benzodiazole-5-carbonyl}-2-azabicyclo[2.2.1]heptan-7-amine], the IC50 was 99 nM. The value for `COc1cc(C(=O)N2CC3CCC2[C@@H]3N)cc2nc(-c3cc4ccccc4n3CC3CC3)n(Cc3cnn(-c4cc(Cl)ccn4)c3)c12` (stereo partly drawn) [Example 392, (7R)-2-(1-{[1-(4-chloropyridin-2-yl)-1H-pyrazol-4-yl]methyl}-2-[1-(cyclopropylmethyl)-1H-indol-2-yl]-7-methoxy-1H-1,3-benzodiazole-5-carbonyl)-2-azabicyclo[2.2.1]heptan-7-amine] was 48 nM; that for `COc1cc(C(=O)N2CC3CCC2[C@@H]3N)cc2nc(-c3cc4cccnc4n3CC3CC3)n(C3CCN(C(=O)c4ccnc(Cl)c4)CC3)c12` (stereo partly drawn) [Example 239, (1R,4R.,7R)-2-{1-[1-(2-chloropyridine-4-carbonyl)piperidin-4-yl]-2-[1-(cyclopropylmethyl)-1H-pyrrolo[2,3-b]pyridin-2-yl]-7-methoxy-1H-1,3-benzodiazole-5-carbonyl}-2-azabicyclo[2.2.1]heptan-7-amine] was 927 nM; that for `COc1cc(C(=O)N2CC3CCC2[C@@H]3N)cc2nc(-c3cc4ccccc4n3CC3CC3)n(CC3CN(C(=O)[C@@H]4C[C@H]4c4ccccc4)C3)c12` (stereo partly drawn) [Example 162, (1R,4R,7R)-2-{2-[1-(cyclopropylmethyl)-1H-indol-2-yl]-7-methoxy-1-({1-[(1R,2R)-2-phenylcyclopropanecarbonyl]aze-tidin-3-yl}methyl)-1H-1,3-benzodiazole-5-carbonyl}-2-azabicyclo[2.2.1]heptan-7-amine] was 25 nM. For `COc1cc(C(=O)N2CCC[C@@H](N)C2)cc2nc(-c3cc4cccnc4n3CC3CC3)n([C@H]3C[C@@H](N)C3)c12` [Example 303, (3R)-1-{2-[1-(cyclopropylmethyl)-1H-pyrrolo[2,3-b]pyridin-2-yl]-7-methoxy-1-[(1s,3s)-3-aminocyclobutyl]-1H-1,3-benzodiazole-5-carbonyl}piperidin-3-amine], the half-maximal inhibitory concentration (IC50) was 1650 nM. The value for `COc1cc(C(=O)N2CC3CCC2[C@@H]3N)cc2nc(-c3cc4ccc(C(C)O)cc4n3CC3CC3)n(CC3CN(C(=O)c4ccc(C#N)cc4)C3)c12` (stereo partly drawn) [Example 523, 4-[3-({5-[(7R)-7-amino-2-azabicyclo[2.2.1]heptane-2-carbonyl]-2-[1-(cyclopropylmethyl)-6-(1-hydroxyethyl)-1H-indol-2-yl]-7-methoxy-1H-1,3-benzodiazol-1-yl}methyl)azetidine-1-carbonyl]benzonitrile] was 34 nM. On to `COc1cc(C(=O)N2C[C@H]3CC[C@@H]2[C@@H]3N)cc2nc(-c3cc4cccnc4n3C)n(C[C@@H]3CCN(c4ncccn4)C3)c12` [Example 232, (1R,4R,7R)-2-(7-methoxy-2-{1-methyl-1H-pyrrolo[2,3-b]pyridin-2-yl}-1-{[(3S)-1-(pyrimidin-2-yl)pyrrolidin-3-yl]methyl}-1H-1,3-benzodiazole-5-carbonyl)-2-azabicyclo[2.2.1]heptan-7-amine], for which the IC50 came to 310 nM. The value for `Cn1cc(Cn2c(-c3cc4ccccc4n3CC3CC3)nc3cc(C(=O)N4C[C@H](N)C[C@@H](F)C4)cc(Cl)c32)cn1` [Example 517, (3R,5R)-1-{7-chloro-2-[1-(cyclopropylmethyl)-1H-indol-2-yl]-1-[(1-methyl-1H-pyrazol-4-yl)methyl]-1H-1,3-benzodiazole-5-carbonyl}-5-fluoropiperidin-3-amine] was 590 nM. Take `COc1cc(C(=O)N2C[C@H]3CC[C@@H]2[C@@H]3N)cc2nc(-c3cc4cccnc4n3CC3CC3)n(CC3CN(S(=O)(=O)C(C)C)C3)c12` [Example 335, (1R,4R,7R)-2-{2-[1-(cyclopropylmethyl)-1H-pyrrolo[2,3-b]pyridin-2-yl]-7-methoxy-1-{[1-(propane-2-sulfonyl)azetidin-3-yl)methyl}-1H-1,3-benzodiazole-5-carbonyl}-2-azabicyclo[2.2.1]heptan-7-amine]: the IC50 was determined as 245 nM. In the case of `COc1cc(C(=O)N2C[C@H]3CC[C@@H]2[C@@H]3N)cc2nc(-c3cc4cccnc4n3CC3CC3)n(C3CCN(C(=O)c4ccnc(F)c4)CC3)c12` [Example 241, (1R,4R,7R)-2-{2-[1-(cyclopropylmethyl)-1H-pyrrolo[2,3-b]pyridin-2-yl]-1-[1-(2-fluoropyridine-4-carbonyl)piperidin-4-yl]-7-methoxy-1H-1,3-benzodiazole-5-carbonyl}-2-azabicyclo[2.2.1]heptan-7-amine], the IC50 came out at 2540 nM. On to `COc1cc(C(=O)N2C[C@H]3CC[C@@H]2[C@@H]3N)cc2nc(-c3cc4cccnc4n3CC3CC3)n(CC3CN(C(=O)c4ccnc(N)n4)C3)c12` [Example 125, (1R,4R,7R)-2-(1-{[1-(2-aminopyrimidine-4-carbonyl)azetidin-3-yl]methyl}-2-[1-(cyclopropylmethyl)-1H-pyrrolo[2,3-b]pyridin-2-yl]-7-methoxy-1H-1,3-benzodiazole-5-carbonyl)-2-azabicyclo[2.2.1]heptan-7-amine], for which the 50% inhibitory concentration (IC50) is 102 nM. Consider `COc1cc(C(=O)N2C[C@H]3CC[C@@H]2[C@@H]3N)cc2nc(-c3cc4cc(Cl)ccc4n3C)n(CC3CN(c4cncc(C#N)c4)C3)c12` [Example 58, 5-[3-({5-[(1R,4R,7R)-7-amino-2-azabicyclo[2.2.1]heptane-2-carbonyl]-2-(5-chloro-1-methyl-1H-indol-2-yl)-7-methoxy-1H-1,3-benzodiazol-1-yl}methyl)azetidin-1-yl]pyridine-3-carbonitrile], for which the IC50 is 169 nM.

Consider `COc1ccc2cc(-c3nc4cc(C(=O)N5C[C@H]6CC[C@@H]5[C@@H]6N)cc(OC)c4n3CC3CN(c4cccc(C#N)n4)C3)n(CC3CC3)c2n1` [Example 54, 6-[3-({5-[(1R,4R,7R)-7-amino-2-azabicyclo[2.2.1]heptane-2-carbonyl]-2-[1-(cyclopropylmethyl)-6-methoxy-1H-pyrrolo[2,3-b]pyridin-2-yl]-7-methoxy-1H-1,3-benzodiazol-1-yl}methyl)azetidin-1-yl]pyridine-2-carbonitrile], for which the IC50 is 162 nM.

Regarding `COc1cc(C(=O)N2C[C@H]3CC[C@@H]2[C@@H]3N)cc2nc(-c3cc4ccccc4n3CC3CC3)n(CC3CN(c4cncc(C#N)c4)C3)c12` [Example 67, 5-[3-({5-[(1R,4R,7R)-7-amino-2-azabicyclo[2.2.1]heptane-2-carbonyl]-2-[1-(cyclopropylmethyl)-1H-indol-2-yl]-7-methoxy-1H-1,3-benzodiazol-1-yl}methyl)azetidin-1-yl]pyridine-3-carbonitrile], the IC50 came to 40 nM. In the case of `COc1cc(C(=O)N2C[C@H]3CC[C@@H]2[C@@H]3N)cc2nc(-c3cc4cccnc4n3CC3CC3)n(CC3CNC3)c12` [Example 306, (1R,4R,7R)-2-{1-[(azetidin-3-yl)methyl]-2-[1-(cyclopropylmethyl)-1H-pyrrolo[2,3-b]pyridin-2-yl]-7-methoxy-1H-1,3-benzodiazole-5-carbonyl}-2-azabicyclo[2.2.1]heptan-7-amine], the IC50 worked out at 243 nM.

`COc1cc(C(=O)N2C[C@H]3CC[C@@H]2[C@@H]3N)cc2nc(-c3cc4ccccc4n3CC3CC3)n(CC3CN(C(=O)c4ccc(-c5ccc(O)cc5)cc4)C3)c12` [Example 149, 4′-[3-({5-[(1R,4R,7R)-7-amino-2-azabicyclo[2.2.1]heptane-2-carbonyl]-2-[1-(cyclopropylmethyl)-1H-indol-2-yl]-7-methoxy-1H-1,3-benzodiazol-1-yl}methyl)azetidine-1-carbonyl]-[1,1′-biphenyl]-4-ol]: the IC50 came out at 19 nM. On to `COc1cc(C(=O)N2CC3CCC2[C@@H]3N)cc2nc(-c3cc4cccnc4n3CC3CC3)n(CC3CN(C(=O)Nc4ccccc4)C3)c12` (stereo partly drawn) [Example 455, 3-({5-[(7R)-7-amino-2-azabicyclo[2.2.1]heptane-2-carbonyl]-2-[1-(cyclopropylmethyl)-1H-pyrrolo[2,3-b]pyridin-2-yl]-7-methoxy-1H-1,3-benzodiazol-1-yl}methyl)-N-phenylazetidine-1-carboxamide], for which the IC50 is 59 nM. The same measure for `COc1cc(C(=O)N2CCC[C@@H](N)C2)cc2nc(-c3cc4ccccc4n3CC3CC3)n(CC3CN(C(=O)c4ccc(C#N)cc4)C3)c12` [Example 180, 4-[3-({5-[(3R)-3-aminopiperidine-1-carbonyl]-2-[1-(cyclopropylmethyl)-1H-indol-2-yl]-7-methoxy-1H-1,3-benzodiazol-1-yl}methyl)azetidine-1-carbonyl]benzonitrile]: 95 nM. The same measure for `COc1cc(C(=O)N2CC3CCC2[C@@H]3N)cc2nc(-c3cc4ccccc4n3CC3CC3)n(CC3CN(C(=O)c4ccncn4)C3)c12` (stereo partly drawn) [Example 437, (7R)-2-{2-[1-(cyclopropylmethyl)-1H-indol-2-yl]-7-methoxy-1-{[1-(pyrimidine-4-carbonyl)azetidin-3-yl]methyl}-1H-1,3-benzodiazole-5-carbonyl}-2-azabicyclo[2.2.1]heptan-7-amine]: 34 nM; for `COc1cc(C(=O)N2C[C@H](N)C[C@@H](F)C2)cc2nc(-c3cc4ccccc4n3CC3CC3)n(Cc3csc(C)n3)c12` [Example 285, (3R,5R)-1-{2-[1-(cyclopropylmethyl)-1H-indol-2-yl]-7-methoxy-1-[(2-methyl-1,3-thiazol-4-yl)methyl]-1H-1,3-benzodiazote-5-carbonyl}-5-fluoropiperidin-3-amine]: 1020 nM.
